Measurements taken from PubChem BioAssay AID1963837 (Molecular Pharmacology Branch, DTP, NCI, 2024).

What follows are compounds tested on 843126-344-R-J1-PDC complex spheroid viability (assay: Anticancer human tumor 843126-344-R-J1-PDC patient-derived melanoma cell line growth inhibition [POLQ]). Details: second compound 0.0316 µM; first compound 1 µM; active compounds read low.
How it was run: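 Three-cell-type spheroids modelling solid tumor plus stroma served as the readout system; POL inhibitors were tested individually and in combination, concentration ranges set by clinical Cmax where known.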
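Also: spheroids exposed to drugs for seven days before readout.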

Compared with `Nc1ccn(C2OC(CO)C(O)C2(F)F)c(=O)n1` (stereo unspecified) + Nc1ccc(C#CCN(C(=O)Cc2ncc(C(F)(F)F)cc2C(F)(F)F)c2ccc(F)cc2)nn1, `O=C(c1cc(Cc2n[nH]c(=O)c3ccccc23)ccc1F)N1CCN(C(=O)C2CC2)CC1` + Nc1ccc(C#CCN(C(=O)Cc2ncc(C(F)(F)F)cc2C(F)(F)F)c2ccc(F)cc2)nn1 is higher in viability, T/C: 38% for the first, 90% for the second.

`O=c1[nH]cc(F)c(=O)[nH]1` + Nc1ccc(C#CCN(C(=O)Cc2ncc(C(F)(F)F)cc2C(F)(F)F)c2ccc(F)cc2)nn1 showed a viability, T/C of 92.9%.

Same assay, conditions: second compound 0.0316 µM; first compound 3.16 µM; active compounds read low

Going from `Nc1ccn(C2OC(CO)C(O)C2(F)F)c(=O)n1` (stereo unspecified) + Nc1ccc(C#CCN(C(=O)Cc2ncc(C(F)(F)F)cc2C(F)(F)F)c2ccc(F)cc2)nn1 to `O=C(c1cc(Cc2n[nH]c(=O)c3ccccc23)ccc1F)N1CCN(C(=O)C2CC2)CC1` + Nc1ccc(C#CCN(C(=O)Cc2ncc(C(F)(F)F)cc2C(F)(F)F)c2ccc(F)cc2)nn1, the viability, T/C rises from 37.6% to 92.1%.

Work on `O=c1[nH]cc(F)c(=O)[nH]1` + Nc1ccc(C#CCN(C(=O)Cc2ncc(C(F)(F)F)cc2C(F)(F)F)c2ccc(F)cc2)nn1 yielded a viability, T/C of 95.4%.

Same assay, conditions: second compound 0.0316 µM; first compound 10 µM; active compounds read low

First: Nc1ccn(C2OC(CO)C(O)C2(F)F)c(=O)n1 (stereo unspecified) + Nc1ccc(C#CCN(C(=O)Cc2ncc(C(F)(F)F)cc2C(F)(F)F)c2ccc(F)cc2)nn1
Second: O=C(c1cc(Cc2n[nH]c(=O)c3ccccc23)ccc1F)N1CCN(C(=O)C2CC2)CC1 + Nc1ccc(C#CCN(C(=O)Cc2ncc(C(F)(F)F)cc2C(F)(F)F)c2ccc(F)cc2)nn1
The viability, T/C of the first is lower: 35% for the first, 75.4% for the second.

`O=c1[nH]cc(F)c(=O)[nH]1` + Nc1ccc(C#CCN(C(=O)Cc2ncc(C(F)(F)F)cc2C(F)(F)F)c2ccc(F)cc2)nn1 gave a viability, T/C of 85.5%.

Same assay, conditions: second compound 0.1 µM; first compound 0.00316 µM; active compounds read low

First: C=CCn1c(=O)c2cnc(Nc3ccc(N4CCN(C)CC4)cc3)nc2n1-c1cccc(C(C)(C)O)n1 + Nc1ccc(C#CCN(C(=O)Cc2ncc(C(F)(F)F)cc2C(F)(F)F)c2ccc(F)cc2)nn1
Second: CCc1c2c(nc3ccc(O)cc13)-c1cc3c(c(=O)n1C2)COC(=O)[C@]3(O)CC + Nc1ccc(C#CCN(C(=O)Cc2ncc(C(F)(F)F)cc2C(F)(F)F)c2ccc(F)cc2)nn1
The viability, T/C of the first is higher: 91.9% for the first, 64.3% for the second.

For `COc1cccc(OCCCN)c1-c1cc(Nc2cnc(C#N)cn2)n[nH]1` + Nc1ccc(C#CCN(C(=O)Cc2ncc(C(F)(F)F)cc2C(F)(F)F)c2ccc(F)cc2)nn1, the viability, T/C was 91.9%.

Same assay, conditions: second compound 0.1 µM; first compound 0.01 µM; active compounds read low

Compared with `C=CCn1c(=O)c2cnc(Nc3ccc(N4CCN(C)CC4)cc3)nc2n1-c1cccc(C(C)(C)O)n1` + Nc1ccc(C#CCN(C(=O)Cc2ncc(C(F)(F)F)cc2C(F)(F)F)c2ccc(F)cc2)nn1, `CCc1c2c(nc3ccc(O)cc13)-c1cc3c(c(=O)n1C2)COC(=O)[C@]3(O)CC` + Nc1ccc(C#CCN(C(=O)Cc2ncc(C(F)(F)F)cc2C(F)(F)F)c2ccc(F)cc2)nn1 is lower in viability, T/C: 92.1% for the first, 47.4% for the second.

`COc1cccc(OCCCN)c1-c1cc(Nc2cnc(C#N)cn2)n[nH]1` + Nc1ccc(C#CCN(C(=O)Cc2ncc(C(F)(F)F)cc2C(F)(F)F)c2ccc(F)cc2)nn1 gave a viability, T/C of 71.2%.

Same assay, conditions: second compound 0.1 µM; first compound 0.0316 µM; active compounds read low

First: C=CCn1c(=O)c2cnc(Nc3ccc(N4CCN(C)CC4)cc3)nc2n1-c1cccc(C(C)(C)O)n1 + Nc1ccc(C#CCN(C(=O)Cc2ncc(C(F)(F)F)cc2C(F)(F)F)c2ccc(F)cc2)nn1
Second: O=C(c1cc(Cc2n[nH]c(=O)c3ccccc23)ccc1F)N1CCN(C(=O)C2CC2)CC1 + Nc1ccc(C#CCN(C(=O)Cc2ncc(C(F)(F)F)cc2C(F)(F)F)c2ccc(F)cc2)nn1
The viability, T/C of the first is higher: 104% for the first, 90.1% for the second.

Going from `CCc1c2c(nc3ccc(O)cc13)-c1cc3c(c(=O)n1C2)COC(=O)[C@]3(O)CC` + Nc1ccc(C#CCN(C(=O)Cc2ncc(C(F)(F)F)cc2C(F)(F)F)c2ccc(F)cc2)nn1 to `COc1cccc(OCCCN)c1-c1cc(Nc2cnc(C#N)cn2)n[nH]1` + Nc1ccc(C#CCN(C(=O)Cc2ncc(C(F)(F)F)cc2C(F)(F)F)c2ccc(F)cc2)nn1, the viability, T/C falls from 59% to 53%.

First: Nc1ccn(C2OC(CO)C(O)C2(F)F)c(=O)n1 (stereo unspecified) + Nc1ccc(C#CCN(C(=O)Cc2ncc(C(F)(F)F)cc2C(F)(F)F)c2ccc(F)cc2)nn1
Second: O=c1[nH]cc(F)c(=O)[nH]1 + Nc1ccc(C#CCN(C(=O)Cc2ncc(C(F)(F)F)cc2C(F)(F)F)c2ccc(F)cc2)nn1
The viability, T/C of the first is lower: 43% for the first, 103% for the second.

Same assay, conditions: second compound 0.1 µM; first compound 0.1 µM; active compounds read low

Compared with `C=CCn1c(=O)c2cnc(Nc3ccc(N4CCN(C)CC4)cc3)nc2n1-c1cccc(C(C)(C)O)n1` + Nc1ccc(C#CCN(C(=O)Cc2ncc(C(F)(F)F)cc2C(F)(F)F)c2ccc(F)cc2)nn1, `O=C(c1cc(Cc2n[nH]c(=O)c3ccccc23)ccc1F)N1CCN(C(=O)C2CC2)CC1` + Nc1ccc(C#CCN(C(=O)Cc2ncc(C(F)(F)F)cc2C(F)(F)F)c2ccc(F)cc2)nn1 is higher in viability, T/C: 85.9% for the first, 93.5% for the second.

First: CCc1c2c(nc3ccc(O)cc13)-c1cc3c(c(=O)n1C2)COC(=O)[C@]3(O)CC + Nc1ccc(C#CCN(C(=O)Cc2ncc(C(F)(F)F)cc2C(F)(F)F)c2ccc(F)cc2)nn1
Second: COc1cccc(OCCCN)c1-c1cc(Nc2cnc(C#N)cn2)n[nH]1 + Nc1ccc(C#CCN(C(=O)Cc2ncc(C(F)(F)F)cc2C(F)(F)F)c2ccc(F)cc2)nn1
The viability, T/C of the first is higher: 65.8% for the first, 53.9% for the second.

Going from `Nc1ccn(C2OC(CO)C(O)C2(F)F)c(=O)n1` (stereo unspecified) + Nc1ccc(C#CCN(C(=O)Cc2ncc(C(F)(F)F)cc2C(F)(F)F)c2ccc(F)cc2)nn1 to `O=c1[nH]cc(F)c(=O)[nH]1` + Nc1ccc(C#CCN(C(=O)Cc2ncc(C(F)(F)F)cc2C(F)(F)F)c2ccc(F)cc2)nn1, the viability, T/C rises from 41.8% to 110%.

Same assay, conditions: second compound 0.1 µM; first compound 0.316 µM; active compounds read low

Compared with `C=CCn1c(=O)c2cnc(Nc3ccc(N4CCN(C)CC4)cc3)nc2n1-c1cccc(C(C)(C)O)n1` + Nc1ccc(C#CCN(C(=O)Cc2ncc(C(F)(F)F)cc2C(F)(F)F)c2ccc(F)cc2)nn1, `CCc1c2c(nc3ccc(O)cc13)-c1cc3c(c(=O)n1C2)COC(=O)[C@]3(O)CC` + Nc1ccc(C#CCN(C(=O)Cc2ncc(C(F)(F)F)cc2C(F)(F)F)c2ccc(F)cc2)nn1 is lower in viability, T/C: 86.5% for the first, 65% for the second.

Compared with `COc1cccc(OCCCN)c1-c1cc(Nc2cnc(C#N)cn2)n[nH]1` + Nc1ccc(C#CCN(C(=O)Cc2ncc(C(F)(F)F)cc2C(F)(F)F)c2ccc(F)cc2)nn1, `Nc1ccn(C2OC(CO)C(O)C2(F)F)c(=O)n1` (stereo unspecified) + Nc1ccc(C#CCN(C(=O)Cc2ncc(C(F)(F)F)cc2C(F)(F)F)c2ccc(F)cc2)nn1 is lower in viability, T/C: 45.1% for the first, 38.7% for the second.
